Measured values published in patent publication US20240368157A1, “FORMS AND COMPOSITIONS OF A JAK2 INHIBITOR” (Ajax Therapeutics, Inc., priority 2023, published 2024).

Key:
[1] = Stability stress studies on Form B (RH/temperature exposure, XRPD); type: physicochemical
Procedure: Stability stress studies were conducted on Form B by exposing samples to three conditions: 57.5% RH/RT; 97.3% RH/RT, and 75% RH/40° C. and collecting XRPD data at two time points (14 and 28 days).

[2] = Dynamic vapor sorption (DVS); type: physicochemical; conditions: for Hysteresis: in % (unit assumed); for weight gain during sorption: 5-95% RH; for XRPD pattern of the post-DVS sample: after DVS experiment; for hygroscopicity: judged from DVS sorption/desorption
Procedure: Moisture sorption/desorption data were collected on a Surface Measurement System DVS Intrinsic instrument. Samples were not dried prior to analysis. Sorption and desorption data were collected over a range from 5% to 95% RH to 5% RH at 10% RH increments under a nitrogen purge. The equilibrium criterion used for analysis was less than 0.0100% weight change in 5 minutes with a maximum equilibration time of 3 hours. Data were not corrected for the initial moisture content of the samples.

[3] = Slurry in water at ambient temperature (XRPD); type: physicochemical
[4] = Interconversion slurry experiments; conditions: interconversion slurries, ambient temperature to 65° C.
Procedure: Mixtures of Form H and Form I with Form B were utilized in these interconversion slurry experiments. […] The interconversion slurries were performed at ambient and elevated (65° C.) temperatures in various solvents and solvent mixtures.

physchem = conditions: water

SMILES	Desorp Mass Change (%) ([2]; DVS cycle 1, target RH 5%)	Sorp Mass Change (%) ([2]; DVS cycle 1, target RH 5%)	Desorp Mass Change (%) ([2]; DVS cycle 1, target RH 15%)	Sorp Mass Change (%) ([2]; DVS cycle 1, target RH 15%)	Hysteresis ([2]; DVS cycle 1, target RH 15%)	Desorp Mass Change (%) ([2]; DVS cycle 1, target RH 25%)	Sorp Mass Change (%) ([2]; DVS cycle 1, target RH 25%)	Hysteresis ([2]; DVS cycle 1, target RH 25%)	Desorp Mass Change (%) ([2]; DVS cycle 1, target RH 35%)	Sorp Mass Change (%) ([2]; DVS cycle 1, target RH 35%)	Hysteresis ([2]; DVS cycle 1, target RH 35%)	Desorp Mass Change (%) ([2]; DVS cycle 1, target RH 45%)	Sorp Mass Change (%) ([2]; DVS cycle 1, target RH 45%)	Hysteresis ([2]; DVS cycle 1, target RH 45%)	Desorp Mass Change (%) ([2]; DVS cycle 1, target RH 55%)	Sorp Mass Change (%) ([2]; DVS cycle 1, target RH 55%)	Hysteresis ([2]; DVS cycle 1, target RH 55%)	Desorp Mass Change (%) ([2]; DVS cycle 1, target RH 65%)	Sorp Mass Change (%) ([2]; DVS cycle 1, target RH 65%)	Hysteresis ([2]; DVS cycle 1, target RH 65%)	further results
CN(C)C(=O)Nc1cc(Oc2cnc3nc(Nc4cc(C(F)(F)F)cn(C)c4=O)n(C)c3c2C#N)ccn1 [Form B]	−0.0297	0.0003	0.0109	0.0327	−0.0218	0.048	0.0627	−0.0147	0.0903	0.0974	−0.0071	0.1586	0.1439	0.0147	0.2045	0.1803	0.0241	0.2463	0.2227	0.0235	XRPD Result ([1]; 57.5% RH/RT, 14 days): Form B; XRPD Result ([1]; 57.5% RH/RT, 28 days): Form B; stability under stress conditions ([1]; 57.5% RH/RT, 97.3% RH/RT, 75% RH/40° C., 14 and 28 days): stable at the tested stress conditions; XRPD Result ([1]; 75.3% RH/40° C., 14 days): Form B; XRPD Result ([1]; 75.3% RH/40° C., 28 days): Form B; XRPD Result ([1]; 97.3% RH/RT, 14 days): Form B; XRPD Result ([1]; 97.3% RH/RT, 28 days): Form B; weight gain during sorption ([2]; DVS): 0.43%; XRPD pattern of the post-DVS sample [2]: consistent with Form B; hygroscopicity [2]: non-hygroscopic; solid form after slurry in water (XRPD) ([3]; 5 days): remained unchanged; relative stability of anhydrous forms [4]: likely the most stable anhydrous form under the tested conditions
CN(C)C(=O)Nc1cc(Oc2cnc3nc(Nc4cc(C(F)(F)F)cn(C)c4=O)n(C)c3c2C#N)ccn1 [Form F]	−0.2589	0.0100	−0.2193	−0.0114	−0.2079	−0.1841	−0.0296	−0.1545	−0.1477	−0.0296	−0.1181	−0.1031	−0.0202	−0.0829	−0.0428	0.0018	−0.0446	0.0238	0.0282	−0.0044	solubility (physchem): < 1 mg/mL; Desorp Mass Change (%) ([2]; DVS cycle 1, target RH 75%): 0.0797%; Sorp Mass Change (%) ([2]; DVS cycle 1, target RH 75%): 0.0741%; Hysteresis ([2]; DVS cycle 1, target RH 75%): 0.0057; Desorp Mass Change (%) ([2]; DVS cycle 1, target RH 85%): 0.1545%; Sorp Mass Change (%) ([2]; DVS cycle 1, target RH 85%): 0.1344%; Hysteresis ([2]; DVS cycle 1, target RH 85%): 0.0201; Desorp Mass Change (%) ([2]; DVS cycle 1, target RH 95%): 0.2669%; Sorp Mass Change (%) ([2]; DVS cycle 1, target RH 95%): 0.2669%; weight gain during sorption ([2]; DVS): 0.3%; weight loss during the desorption step ([2]; DVS, 95-5% RH): 0.5%; XRPD pattern of the post-DVS sample [2]: consistent with Form F; hygroscopicity [2]: non-hygroscopic; solid form after slurry in water (XRPD) ([3]; 3 days): converted completely to Form C
